Assay results taken from ChEMBL document CHEMBL5579798, “Discovery of novel oridonin sulfamide derivatives as potent NLRP3 inhibitors by a visible-light photocatalysis-enabled peripheral editing” (Bioorg Med Chem Lett, 2024).

Assay: Cytotoxicity against human THP-1 cells by CCK-8 method
Format: toxicity, cell-based
For `COc1ccc(S(=O)(=O)NCC[C@@H]2C(=O)[C@]34[C@H](O)[C@H]2CC[C@H]3[C@@]23CO[C@]4(O)[C@@H](O)[C@@H]2C(C)(C)CC[C@@H]3O)cc1`, the CC50 was > 100 µM.
In the case of `CC1(C)CC[C@H](O)[C@]23CO[C@](O)([C@@H](O)[C@H]12)[C@]12C(=O)[C@@H](CCNS(=O)(=O)c4ccsc4)[C@H](CC[C@@H]31)[C@H]2O`, the CC50 is reported as > 100 µM.
For `CC1(C)CC[C@H](O)[C@]23CO[C@](O)([C@@H](O)[C@H]12)[C@]12C(=O)[C@@H](CCNS(=O)(=O)/C=C/c4ccccc4)[C@H](CC[C@@H]31)[C@H]2O`, the CC50 was > 100 µM.
In the case of `CC1(C)CC[C@H](O)[C@]23CO[C@](O)([C@@H](O)[C@H]12)[C@]12C(=O)[C@@H](CCNS(=O)(=O)c4ccc(C(F)(F)F)cc4)[C@H](CC[C@@H]31)[C@H]2O`, the CC50 is reported as > 100 µM.
For `CC1(C)CC[C@H](O)[C@]23CO[C@](O)([C@@H](O)[C@H]12)[C@]12C(=O)[C@@H](CCNS(=O)(=O)c4ccc(C#N)cc4)[C@H](CC[C@@H]31)[C@H]2O`, the CC50 was > 100 µM.
For `CC(C)(C)OC(=O)NCC[C@@H]1C(=O)[C@]23[C@H](O)[C@H]1CC[C@H]2[C@@]12CO[C@]3(O)[C@@H](O)[C@@H]1C(C)(C)CC[C@@H]2O`, the CC50 was > 100 µM.
For `CC1(C)CC[C@H](O)[C@]23CO[C@](O)([C@@H](O)[C@H]12)[C@]12C(=O)[C@@H](CCNS(=O)(=O)c4ccc(F)cc4)[C@H](CC[C@@H]31)[C@H]2O`, the CC50 was > 100 µM.
In the case of `CC1(C)CC[C@H](O)[C@]23CO[C@](O)([C@@H](O)[C@H]12)[C@]12C(=O)[C@@H](CCNS(=O)(=O)c4ccccc4)[C@H](CC[C@@H]31)[C@H]2O`, the CC50 is reported as > 100 µM.
With `CC1(C)CC[C@H](O)[C@]23CO[C@](O)([C@@H](O)[C@H]12)[C@]12C(=O)[C@@H](CCNS(=O)(=O)c4cccnc4)[C@H](CC[C@@H]31)[C@H]2O` the CC50 was > 100 µM.
With `CC1(C)CC[C@H](O)[C@]23CO[C@](O)([C@@H](O)[C@H]12)[C@]12C(=O)[C@@H](CCN)[C@H](CC[C@@H]31)[C@H]2O` the CC50 was > 100 µM.
In the case of `Cn1ccc(S(=O)(=O)NCC[C@@H]2C(=O)[C@]34[C@H](O)[C@H]2CC[C@H]3[C@@]23CO[C@]4(O)[C@@H](O)[C@@H]2C(C)(C)CC[C@@H]3O)n1`, the CC50 is reported as > 100 µM.
`CN(C)c1cccc2c(S(=O)(=O)NCC[C@@H]3C(=O)[C@]45[C@H](O)[C@H]3CC[C@H]4[C@@]34CO[C@]5(O)[C@@H](O)[C@@H]3C(C)(C)CC[C@@H]4O)cccc12` showed a CC50 of 96.8 µM.
`C=C1C(=O)[C@]23[C@H](O)[C@H]1CC[C@H]2[C@@]12CO[C@]3(O)[C@@H](O)[C@@H]1C(C)(C)CC[C@@H]2O` [ORIDONIN] showed a CC50 of 19.8 µM.
